# pIC50: −log10 of the molar value.
# Molecular target: T1, KCNT1 (KNa1.1, Slack) (Homo sapiens, UniProt Q5JUK3)
# T1 construct: expressed in transfected cells; host or cells: HEK-TREX (tetracycline-inducible HEK cell line)
# T1 sequence (Q5JUK3 1-1230): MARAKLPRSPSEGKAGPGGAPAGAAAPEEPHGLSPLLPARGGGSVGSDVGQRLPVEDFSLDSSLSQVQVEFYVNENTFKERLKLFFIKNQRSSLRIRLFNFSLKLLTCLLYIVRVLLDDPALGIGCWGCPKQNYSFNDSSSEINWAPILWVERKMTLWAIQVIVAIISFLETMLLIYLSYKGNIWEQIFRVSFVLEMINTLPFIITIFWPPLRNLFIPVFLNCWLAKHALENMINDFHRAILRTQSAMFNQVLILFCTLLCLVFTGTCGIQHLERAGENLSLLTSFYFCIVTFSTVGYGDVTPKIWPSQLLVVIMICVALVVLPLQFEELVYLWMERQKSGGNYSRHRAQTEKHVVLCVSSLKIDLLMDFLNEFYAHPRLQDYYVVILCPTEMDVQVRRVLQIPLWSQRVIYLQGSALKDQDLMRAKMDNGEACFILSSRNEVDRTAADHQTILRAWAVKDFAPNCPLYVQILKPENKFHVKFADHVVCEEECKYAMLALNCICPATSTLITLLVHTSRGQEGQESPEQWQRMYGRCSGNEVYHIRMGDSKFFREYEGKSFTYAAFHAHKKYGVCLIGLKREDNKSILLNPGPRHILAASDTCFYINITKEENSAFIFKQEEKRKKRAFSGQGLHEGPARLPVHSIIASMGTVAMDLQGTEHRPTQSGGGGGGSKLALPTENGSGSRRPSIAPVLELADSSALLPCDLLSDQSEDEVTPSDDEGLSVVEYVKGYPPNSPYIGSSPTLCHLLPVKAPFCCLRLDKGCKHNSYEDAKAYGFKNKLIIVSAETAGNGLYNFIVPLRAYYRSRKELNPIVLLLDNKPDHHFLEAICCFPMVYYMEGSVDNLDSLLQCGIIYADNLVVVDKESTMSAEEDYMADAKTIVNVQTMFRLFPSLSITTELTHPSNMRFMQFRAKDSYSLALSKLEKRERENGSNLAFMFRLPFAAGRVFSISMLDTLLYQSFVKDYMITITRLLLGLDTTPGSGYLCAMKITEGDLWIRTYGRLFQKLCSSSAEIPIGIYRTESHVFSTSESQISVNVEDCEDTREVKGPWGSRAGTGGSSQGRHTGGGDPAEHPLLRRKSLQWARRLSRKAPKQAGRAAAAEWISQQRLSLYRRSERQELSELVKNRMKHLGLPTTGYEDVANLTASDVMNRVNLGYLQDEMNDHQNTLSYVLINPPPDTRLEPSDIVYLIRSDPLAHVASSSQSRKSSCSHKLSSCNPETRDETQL
# Experiment: KCNT1 patch clamp assay (SyncroPatch 384PE automated patch clamp)
# Format: cell-based
# Settings: tetracycline inducible HEK-TREX cell line; perforated patch; step from −80 mV to 0 mV; room temperature; read-out: KCNT1-WT IC50
# Method in brief: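 Tetracycline-inducible HEK-TREX cells; perforated-patch (10 μM escin) population recordings at room temperature, holding −80 mV with 100 ms step to 0 mV.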
row,pIC50,Compound
1,≥ 6.00,"CCOc1cc(-c2noc([C@H](C)NC(=O)c3cc(C(F)(F)F)nn3C)n2)ccn1 [Compound 205, (S)—N-(1-(3-(2-ethoxypyridin-4-yl)-1,2,4-oxadiazol-5-yl)ethyl)-1-methyl-3-(trifluoromethyl)-1H-pyrazole-5-carboxamide]"
2,≥ 6.00,"C[C@H](NC(=O)c1cc(C(F)(F)F)nn1C)c1nc(-c2ccnc(OC3CC3)c2)no1 [Compound 207, (S)—N-(1-(3-(2-cyclopropoxypyridin-4-yl)-1,2,4-oxadiazol-5-yl)ethyl)-1-methyl-3-(trifluoromethyl)-1H-pyrazole-5-carboxamide]"
3,≥ 6.00,"C[C@H](NC(=O)c1cc(C(F)(F)F)nn1C)c1nc(-c2ccnc(OCC(F)F)c2)no1 [Compound 211, (S)—N-(1-(3-(2-(2,2-difluoroethoxy)pyridin-4-yl)-1,2,4-oxadiazol-5-yl)ethyl)-1-methyl-3-(trifluoromethyl)-1H-pyrazole-5-carboxamide]"
4,4.70 to 6.00,"COC1CN(c2cc(-c3noc([C@H](C)NC(=O)c4cc(C(F)(F)F)nn4C)n3)ccn2)C1 [Compound 213, (S)—N-(1-(3-(2-(3-methoxyazetidin-1-yl)pyridin-4-yl)-1,2,4-oxadiazol-5-yl)ethyl)-1-methyl-3-(trifluoromethyl)-1H-pyrazole-5-carboxamide]"
5,≥ 6.00,"C[C@H](NC(=O)c1cc(C(F)(F)F)nn1C)c1nc(-c2ccnc(OCC3CC3)c2)no1 [Compound 214, (S)—N-(1-(3-(2-(cyclopropylmethoxy)pyridin-4-yl)-1,2,4-oxadiazol-5-yl)ethyl)-1-methyl-3-(trifluoromethyl)-1H-pyrazole-5-carboxamide]"
6,4.70 to 6.00,"CC[C@H](NC(=O)c1ccnn1-c1ccccc1)c1nc(-c2ccnc(C)c2)no1 [Compound 215, (S)—N-(1-(3-(2-methylpyridin-4-yl)-1,2,4-oxadiazol-5-yl)propyl)-1-phenyl-1H-pyrazole-5-carboxamide]"
7,≥ 6.00,"CC[C@H](NC(=O)c1ccnn1C1CCCC1)c1nc(-c2ccnc(C)c2)no1 [Compound 216, (S)-1-cyclopentyl-N-(1-(3-(2-methylpyridin-4-yl)-1,2,4-oxadiazol-5-yl)propyl)-1H-pyrazole-5-carboxamide]"
8,4.70 to 6.00,"CC[C@H](NC(=O)c1cc(C)nn1C1CCOCC1)c1nc(-c2ccnc(C)c2)no1 [Compound 217, (S)-3-methyl-N-(1-(3-(2-methylpyridin-4-yl)-1,2,4-oxadiazol-5-yl)propyl)-1-(tetrahydro-2H-pyran-4-yl)-1H-pyrazole-5-carboxamide]"
9,≥ 6.00,"CC[C@H](NC(=O)c1cc(C)nn1-c1ccccc1)c1nc(-c2ccnc(C)c2)no1 [Compound 218, (S)-3-methyl-N-(1-(3-(2-methylpyridin-4-yl)-1,2,4-oxadiazol-5-yl)propyl)-1-phenyl-1H-pyrazole-5-carboxamide]"
10,≥ 6.00,"CC[C@H](NC(=O)c1ccnn1Cc1ccccc1)c1nc(-c2ccnc(C)c2)no1 [Compound 219, (S)-1-benzyl-N-(1-(3-(2-methylpyridin-4-yl)-1,2,4-oxadiazol-5-yl)propyl)-1H-pyrazole-5-carboxamide]"
11,≥ 6.00,"CC[C@H](NC(=O)c1cc(C(F)(F)F)nn1C(F)F)c1nc(-c2ccnc(C)c2)no1 [Compound 221, (S)-1-(difluoromethyl)-N-(1-(3-(2-methylpyridin-4-yl)-1,2,4-oxadiazol-5-yl)propyl)-3-(trifluoromethyl)-1H-pyrazole-5-carboxamide]"
12,≥ 6.00,"C[C@H](NC(=O)c1cc(C(F)(F)F)nn1C)c1nc(-c2ccnc(N3CC(F)(F)C3)c2)no1 [Compound 222, (S)—N-(1-(3-(2-(3,3-difluoroazetidin-1-yl)pyridin-4-yl)-1,2,4-oxadiazol-5-yl)ethyl)-1-methyl-3-(trifluoromethyl)-1H-pyrazole-5-carboxamide]"
13,≥ 6.00,"CC(C)Oc1cc(-c2noc([C@H](C)NC(=O)c3cc(-c4ccc(F)cc4)nn3C)n2)ccn1 [Compound 223, (S)-3-(4-fluorophenyl)-N-(1-(3-(2-isopropoxypyridin-4-yl)-1,2,4-oxadiazol-5-yl)ethyl)-1-methyl-1H-pyrazole-5-carboxamide]"

# Continued, compound first:
row,Compound,pIC50
1,"CC(NC(=O)c1cc(C(F)(F)F)nn1C)c1nc(-c2cccc(S(C)(=O)=O)c2)no1 (centres unmarked) [Compound 179, 1-methyl-N-(1-(3-(3-(methylsulfonyl)phenyl)-1,2,4-oxadiazol-5-yl)ethyl)-3-(trifluoromethyl)-1H-pyrazole-5-carboxamide]",4.70 to 6.00
2,"CC(NC(=O)c1cc(C(F)(F)F)nn1C)c1nc(-c2cccc(S(N)(=O)=O)c2)no1 (centres unmarked) [Compound 180, 1-methyl-N-(1-(3-(3-sulfamoylphenyl)-1,2,4-oxadiazol-5-yl)ethyl)-3-(trifluoromethyl)-1H-pyrazole-5-carboxamide]",≤ 4.70
3,"COC(=O)c1cccc(-c2noc(C(C)NC(=O)c3cc(C(F)(F)F)nn3C)n2)c1 (centres unmarked) [Compound 181, methyl 3-(5-(1-(1-methyl-3-(trifluoromethyl)-1H-pyrazole-5-carboxamido)ethyl)-1,2,4-oxadiazol-3-yl)benzoate]",≥ 6.00
4,"CC(NC(=O)c1cc(C(F)(F)F)nn1C)c1nc(-c2cccc(C(=O)O)c2)no1 (centres unmarked) [Compound 182, 3-(5-(1-(1-methyl-3-(trifluoromethyl)-1H-pyrazole-5-carboxamido)ethyl)-1,2,4-oxadiazol-3-yl)benzoic Acid]",≤ 4.70
5,"CC(NC(=O)c1cc(C(F)(F)F)nn1C)c1nc(-c2cccc(C(=O)N(C)C)c2)no1 (centres unmarked) [Compound 183, N-(1-(3-(3-(dimethylcarbamoyl)phenyl)-1,2,4-oxadiazol-5-yl)ethyl)-1-methyl-3-(trifluoromethyl)-1H-pyrazole-5-carboxamide]",≤ 4.70
6,"CC(NC(=O)c1cc(C(F)(F)F)nn1C)c1nc(-c2cccc(O)c2)no1 (centres unmarked) [Compound 186, N-(1-(3-(3-hydroxyphenyl)-1,2,4-oxadiazol-5-yl)ethyl)-1-methyl-3-(trifluoromethyl)-1H-pyrazole-5-carboxamide]",4.70 to 6.00
7,"C[C@@H](NC(=O)c1cn(C)nc1C(F)F)c1nc(-c2cccc(F)c2)no1 [Compound 187, (R)-3-(difluoromethyl)-N-(1-(3-(3-fluorophenyl)-1,2,4-oxadiazol-5-yl)ethyl)-1-methyl-1H-pyrazole-4-carboxamide]",≤ 4.70
8,"C[C@H](NC(=O)c1cn(C)nc1C(F)F)c1nc(-c2cccc(F)c2)no1 [Compound 188, (S)-3-(difluoromethyl)-N-(1-(3-(3-fluorophenyl)-1,2,4-oxadiazol-5-yl)ethyl)-1-methyl-1H-pyrazole-4-carboxamide]",4.70 to 6.00
9,"CC(NC(=O)c1cc(C(F)(F)F)nn1C)c1nc(-c2cccc(C(N)=O)c2)no1 (centres unmarked) [Compound 193, N-(1-(3-(3-carbamoylphenyl)-1,2,4-oxadiazol-5-yl)ethyl)-1-methyl-3-(trifluoromethyl)-1H-pyrazole-5-carboxamide]",≤ 4.70
10,"COc1cccc(-c2noc([C@H](C)NC(=O)c3cc(C(F)(F)F)nn3C)n2)c1 [Compound 196, (S)—N-(1-(3-(3-methoxyphenyl)-1,2,4-oxadiazol-5-yl)ethyl)-1-methyl-3-(trifluoromethyl)-1H-pyrazole-5-carboxamide]",≥ 6.00
11,"CC[C@H](NC(=O)c1cc(C(F)(F)F)nn1C)c1nc(-c2ccnc(C)c2)no1 [Compound 199, (S)-1-methyl-N-(1-(3-(2-methylpyridin-4-yl)-1,2,4-oxadiazol-5-yl)propyl)-3-(trifluoromethyl)-1H-pyrazole-5-carboxamide]",≥ 6.00
12,"CC(C)Oc1cc(-c2noc([C@H](C)NC(=O)c3cc(C(F)(F)F)nn3C)n2)ccn1 [Compound 201, (S)—N-(1-(3-(2-isopropoxypyridin-4-yl)-1,2,4-oxadiazol-5-yl)ethyl)-1-methyl-3-(trifluoromethyl)-1H-pyrazole-5-carboxamide]",≥ 6.00
13,"C[C@H](NC(=O)c1cc(C(F)(F)F)nn1C)c1nc(-c2ccnc(OC3CC(F)(F)C3)c2)no1 [Compound 208, (S)—N-(1-(3-(2-(3,3-difluorocyclobutoxy)pyridin-4-yl)-1,2,4-oxadiazol-5-yl)ethyl)-1-methyl-3-(trifluoromethyl)-1H-pyrazole-5-carboxamide]",≥ 6.00
